US11173173B2, “Methods for treating chemoresistant cancer-initiating cells” (UNIVERSITY OF CONNECTICUT, priority 2015, dated 2021)

Tests used:
[1] = molecular target: T1, EGFP-AKT and mCherry-β-catenin (Mus musculus, UniProt Q02248); experiment: FRET assay (acceptor photobleaching) of Akt/β-catenin interaction in 293T cells; format: cell-based; settings: 25, 50, 100, 200 nM; vehicle 2.24%
T1 construct: host or cells: 293T cells
T1 sequence (Q02248 1-781): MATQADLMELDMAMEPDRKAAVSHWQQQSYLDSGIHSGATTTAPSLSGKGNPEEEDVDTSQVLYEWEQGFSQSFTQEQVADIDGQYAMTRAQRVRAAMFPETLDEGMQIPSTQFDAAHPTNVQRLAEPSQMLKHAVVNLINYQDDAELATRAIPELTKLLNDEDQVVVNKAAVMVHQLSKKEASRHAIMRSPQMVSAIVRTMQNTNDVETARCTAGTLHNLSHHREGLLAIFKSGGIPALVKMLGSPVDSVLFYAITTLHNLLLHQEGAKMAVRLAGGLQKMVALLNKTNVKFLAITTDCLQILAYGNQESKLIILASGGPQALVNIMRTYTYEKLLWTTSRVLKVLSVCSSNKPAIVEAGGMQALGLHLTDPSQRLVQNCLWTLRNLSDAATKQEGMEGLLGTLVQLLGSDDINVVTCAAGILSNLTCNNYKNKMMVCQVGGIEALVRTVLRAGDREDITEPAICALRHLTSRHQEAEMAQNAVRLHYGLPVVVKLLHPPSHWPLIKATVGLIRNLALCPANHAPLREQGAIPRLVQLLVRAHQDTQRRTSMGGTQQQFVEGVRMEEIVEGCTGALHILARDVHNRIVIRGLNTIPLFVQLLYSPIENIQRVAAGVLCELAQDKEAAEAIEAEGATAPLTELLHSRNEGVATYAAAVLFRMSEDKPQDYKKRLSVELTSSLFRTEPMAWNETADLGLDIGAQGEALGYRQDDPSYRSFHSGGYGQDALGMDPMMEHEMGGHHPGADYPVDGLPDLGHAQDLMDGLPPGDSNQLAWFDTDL
Method: FRET measurement was performed by using the acceptor photobleaching method. […] A Perkin-Elmer Ultraview spinning disc system with a CSU-X1 Yokogawa disc was used for imaging. A 40X 1.2 NA Plan-apochromatic objective was used, and emission was collected onto a C9100 Hamamatsu Photonics EM-CCD. EGFP was excited with a 488 nm laser, and emission was collected through a 500-555 nm band pass filter. mCherry was illuminated, and photobleached, with a 561 nm laser. Emission of mCherry was collected with a 580-650 nm band pass filter. 6 images of EGFP were acquired before and 8 images after bleaching of the mCherry with intense 561 nm light. After subtraction of camera background, the average intensity of EGFP in a region of interest spanning the bleached cell was determined in the 4 images before acceptor bleach (I1), or the 4 images after acceptor bleach (I2). FRET efficiency is reported as 1−(I1/I2). Calculations were based on >500 cell images.
To test whether DXR could block interaction between Akt and β-catenin, Fluorescence Resonance Energy Transfer (FRET) analysis using EGFP-AKT and mCherry-β-catenin transfected cells was performed.

[2] = system: BM cells isolated from leukemic Pten:β-cat^Act double mutants (LSCs, HSPCs); experiment: In vitro treatment of BM cells from leukemic mice, flow cytometry for LSCs and HSPCs; format: cell-based, mouse; settings: 11, 33 or 100 nM, 72 hours
Method: Doxorubicin, 0105375, and thioguanosine were added to 11, 33 or 100 nM and cultured for 72 hours and analyzed by flow cytometry for LSCs (a) and HSPCs (b) as in FIG. 1. Fold change before and after culture for each population is indicated relative to equivalent vehicle control concentrations.
Bone marrow cells from leukemic mice at 8 weeks post-induction were cultured overnight at 5-20×10^4 cells per well in 96-well U-bottom tissue culture plates (Becton, Dickinson and Company; Cat. No. 353077) in HSC expansion media in low O2 conditions as previously described (Perry, J. M. et al. Cooperation between both Wnt/{beta}-catenin and PTEN/PI3K/Akt signaling promotes primitive hematopoietic stem cell self-renewal and expansion. Genes Dev 25, 1928-1942 (2011)). Doxorubicin (Sigma; D1515), 0105375 ((S)-N-(2-bromobenzyl)-N-(1-hydroxy-3-phenylpropan-2-yl)ethenesulfonamide, University of Kansas CMLD compound), or Thioguanosine was mixed with HSC expansion media and added to the cultures to obtain final concentrations of 11, 33, 100 nM. Equivalent amounts of DMSO alone (vehicle control) were added to parallel cultures for comparison. Half-media changes were performed approximately every 24 hrs. Cultures were analyzed after 72 hrs exposure to the indicated drug.

[3] = system: LSCs and HSPCs of leukemic Pten:β-catAct mice; experiment: Example 6: LSCs and HSPCs in BM of leukemic mice, Doxo vs NanoDoxo vs Doxil with chemotherapy; format: in vivo, mouse; settings: Doxo 0.5 mg/kg x5 daily, NanoDoxo or Doxil single 0.8 mg/kg, BM 5-6 days after treatment
Source text: All drugs were solubilized in 45% (2-Hydroxypropyl)-β-cyclodextrin (HBC).

SMILES: COc1cccc2c1C(=O)c1c(O)c3c(c(O)c1C2=O)C[C@@](O)(C(=O)CO)C[C@@H]3O[C@H]1C[C@H](N)[C@H](O)[C@H](C)O1 [DXR, doxorubicin]
- FRET efficiency between EGFP-AKT and mCherry-β-catenin [1]: decreased with increasing concentrations of DXR
- HSPCs after culture, relative to vehicle [2]: not HSPCs
- LSCs after culture, relative to vehicle [2]: significantly reduced LSCs
- HSPC recovery in BM [3]: facilitates recovery of HSPCs
- LSCs in BM [3]: prevents this expansion
